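Five compound concentrations were applied to cells in 96-well plates for 48 hours; endpoints were derived by simple linear interpolation of the resulting dose-response curve. The concentration for 50% growth inhibition is given as GI50. TGI marks complete inhibition of growth.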
How the values were obtained:
Assay in all cases: NCI anticancer screen, dose series, 48 h
[1] = test system: 786-0 renal
[2] = test system: A498 renal
[3] = test system: A549 NSCLC
[4] = test system: ACHN renal
[5] = test system: BT-549 breast
[6] = test system: CAKI-1 renal
[7] = test system: CCRF-CEM leukemia
[8] = test system: COLO 205 colon
[9] = test system: DU-145 prostate
[10] = test system: EKVX NSCLC
[11] = test system: HCC-2998 colon
[12] = test system: HCT-116 colon
[13] = test system: HCT-15 colon
[14] = test system: HL-60(TB) leukemia
[15] = test system: HOP-62 NSCLC
[16] = test system: HOP-92 NSCLC
[17] = test system: HS 578T breast
[18] = test system: HT29 colon
[19] = test system: IGROV1 ovarian
[20] = test system: K-562 leukemia
[21] = test system: KM12 colon
[22] = test system: LOX IMVI melanoma
[23] = test system: M14 melanoma
[24] = test system: MALME-3M melanoma
[25] = test system: MCF7 breast
[26] = test system: MDA-MB-231 breast
[27] = test system: MDA-MB-435
[28] = test system: MOLT-4 leukemia
[29] = test system: NCI-H226 lung
[30] = test system: NCI-H23 lung
[31] = test system: NCI-H460 lung
[32] = test system: NCI-H522 lung
[33] = test system: NCI/ADR-RES ovarian
[34] = test system: OVCAR-4 ovarian
[35] = test system: OVCAR-5 ovarian
[36] = test system: OVCAR-8 ovarian
[37] = test system: PC-3 prostate
[38] = test system: RPMI-8226 leukemia
[39] = test system: RXF 393 renal
[40] = test system: SF-268 CNS
[41] = test system: SF-295 CNS
[42] = test system: SF-539 CNS
[43] = test system: SK-MEL-28 melanoma
[44] = test system: SK-MEL-5 melanoma
[45] = test system: SK-OV-3 ovarian
[46] = test system: SN12C renal
[47] = test system: SNB-19 CNS
[48] = test system: SNB-75 CNS
[49] = test system: SR leukemia
[50] = test system: SW-620 colon
[51] = test system: T-47D breast
[52] = test system: TK-10 renal
[53] = test system: U251 CNS
[54] = test system: UACC-257 melanoma
[55] = test system: UACC-62 melanoma
[56] = test system: UO-31 renal

O=C(N/N=C\c1ccc(F)cc1)c1ccc2nc(-c3ccc(Br)cc3)[nH]c2c1
GI50 [1]: 2.03 µM
TGI [1]: 3.88 µM
GI50 [2]: 1.94 µM
TGI [2]: 5.31 µM
GI50 [3]: 1.9 µM
TGI [3]: 3.7 µM
GI50 [4]: 1.81 µM
TGI [4]: 3.69 µM
GI50 [5]: 2.34 µM
TGI [5]: 6.08 µM
GI50 [6]: 2.2 µM
TGI [6]: 5.41 µM
GI50 [7]: 3.5 µM
TGI [7]: 32.1 µM
GI50 [8]: 1.91 µM
TGI [8]: 4.43 µM
GI50 [9]: 2.07 µM
TGI [9]: 4.97 µM
GI50 [10]: 2.09 µM
TGI [10]: 4.8 µM
GI50 [11]: 2.28 µM
TGI [11]: 5.48 µM
GI50 [12]: 1.87 µM
TGI [12]: 3.95 µM
GI50 [13]: 2.19 µM
TGI [13]: 5.08 µM
GI50 [14]: 14.6 µM
TGI [14]: > 100 µM
GI50 [15]: 1.86 µM
TGI [15]: 3.72 µM
GI50 [16]: 2.13 µM
TGI [16]: 4.54 µM
GI50 [17]: 2.04 µM
TGI [17]: 5.39 µM
GI50 [18]: 1.85 µM
TGI [18]: 3.47 µM
GI50 [19]: 1.88 µM
TGI [19]: 3.89 µM
GI50 [20]: 2.73 µM
TGI [20]: 8.09 µM
GI50 [21]: 3.2 µM
TGI [21]: 15.1 µM
GI50 [22]: 1.74 µM
TGI [22]: 3.54 µM
GI50 [23]: 2.08 µM
TGI [23]: 4.52 µM
GI50 [24]: 1.65 µM
TGI [24]: 3.43 µM
GI50 [25]: 1.7 µM
TGI [25]: 3.88 µM
GI50 [26]: 1.93 µM
TGI [26]: 4.49 µM
GI50 [27]: 1.96 µM
TGI [27]: 4.12 µM
GI50 [28]: 2.17 µM
TGI [28]: 5.62 µM
GI50 [29]: 2.62 µM
TGI [29]: 16.6 µM
GI50 [30]: 1.88 µM
TGI [30]: 3.67 µM
GI50 [31]: 1.72 µM
TGI [31]: 3.27 µM
GI50 [32]: 1.78 µM
TGI [32]: 3.96 µM
GI50 [33]: 7.97 µM
TGI [33]: > 100 µM
GI50 [34]: 2.51 µM
TGI [34]: 7.13 µM
GI50 [35]: 2.28 µM
TGI [35]: 5.73 µM
GI50 [36]: 1.98 µM
TGI [36]: 4.14 µM
GI50 [37]: 1.79 µM
TGI [37]: 3.4 µM
GI50 [38]: 2.97 µM
TGI [38]: 9.39 µM
GI50 [39]: 1.74 µM
TGI [39]: 3.53 µM
GI50 [40]: 3.26 µM
TGI [40]: 13 µM
GI50 [41]: 2.18 µM
TGI [41]: 5.24 µM
GI50 [42]: 1.74 µM
TGI [42]: 3.42 µM
GI50 [43]: 1.86 µM
TGI [43]: 3.8 µM
GI50 [44]: 3.25 µM
TGI [44]: 13.4 µM
GI50 [45]: 2.09 µM
TGI [45]: 5.17 µM
GI50 [46]: 1.78 µM
TGI [46]: 3.63 µM
GI50 [47]: 2.27 µM
TGI [47]: 4.96 µM
GI50 [48]: 1.87 µM
TGI [48]: 4.41 µM
GI50 [49]: 2.75 µM
TGI [49]: 8.79 µM
GI50 [50]: 1.9 µM
TGI [50]: 3.76 µM
GI50 [51]: 1.78 µM
TGI [51]: 3.92 µM
GI50 [52]: 2.59 µM
TGI [52]: 5.48 µM
GI50 [53]: 1.91 µM
TGI [53]: 3.38 µM
GI50 [54]: 2.03 µM
TGI [54]: 4.48 µM
GI50 [55]: 2.69 µM
TGI [55]: 8.76 µM
GI50 [56]: 1.6 µM
TGI [56]: 3.31 µM
